{
  "source": "patent US20240368209A1",
  "about": "“GEMCITABINE ANTICANCER DERIVATIVE AND ANTICANCER PHARMACEUTICAL USE” (ASCENTAWITS PHARMACEUTICALS, LTD., priority 2021, published 2024)",
  "key": {"[1]": {"assay": "Plasma stability in human plasma", "type": "in vitro ADME", "description": "(§1) The final concentration of organic solvents was 0.5%. The test was conducted in duplicate. • C.\n(§2) Samples were analyzed with LC-MS/MS. All calculations were conducted using Microsoft Excel."}, "[2]": {"assay": "Plasma stability in mouse plasma", "type": "in vitro ADME", "description": "as §1, §2"}},
  "data": [
    {"smiles": "CC(C)NP(=O)(OCc1ccc([N+](=O)[O-])c(Oc2ccc(-c3ccc(F)cc3)c(F)c2)c1)OCC1OC(C2N=CC(N)=NC2=O)C(F)(F)C1O", "note": "(centres unmarked) [Compound H11]", "values": [
      {"measurement": "t1/2 (min)", "setting": "[1]", "result": "∞"},
      {"measurement": "Remaining percentage (%)", "setting": "[1]; 0 min, 5 μM, 37° C.", "result": 100.00, "unit": "%"},
      {"measurement": "plasma stability (in words)", "setting": "[1]; 37° C., at least 2 hours", "result": "stable and has no significant metabolism"},
      {"measurement": "Remaining percentage (%)", "setting": "[1]; 15 min", "result": 95.74, "unit": "%"},
      {"measurement": "Remaining percentage (%)", "setting": "[1]; 30 min", "result": 94.17, "unit": "%"},
      {"measurement": "Remaining percentage (%)", "setting": "[1]; 60 min", "result": 102.77, "unit": "%"},
      {"measurement": "Remaining percentage (%)", "setting": "[1]; 120 min", "result": 99.46, "unit": "%"},
      {"measurement": "t1/2 (min)", "setting": "[2]", "result": "∞"},
      {"measurement": "Remaining percentage (%)", "setting": "[2]; 0 min, 5 μM, 37° C.", "result": 100.00, "unit": "%"},
      {"measurement": "plasma stability (in words)", "setting": "[2]; 37° C., at least 2 hours", "result": "stable and has no significant metabolism"},
      {"measurement": "Remaining percentage (%)", "setting": "[2]; 15 min", "result": 102.19, "unit": "%"},
      {"measurement": "Remaining percentage (%)", "setting": "[2]; 30 min", "result": 96.83, "unit": "%"},
      {"measurement": "Remaining percentage (%)", "setting": "[2]; 60 min", "result": 104.70, "unit": "%"},
      {"measurement": "Remaining percentage (%)", "setting": "[2]; 120 min", "result": 97.53, "unit": "%"}
    ]}
  ]
}
